According to ChEMBL document CHEMBL5727929, “CXCR4 inhibitors and uses thereof” (2020):

Assay: Binding Inhibition Assay: Jurkat cells expressing CXCR4 were washed once with assay buffer (Hanks' balanced salt solution with 20 mM HEPES buffer and 0.2% bovine serum albumin, pH 7.4) and then incubated for 15 min at room temperature with the test compounds diluted in assay buffer at dose-dependent concentrations. Subsequently, CXCL12-AF647 (25 ng/mL) was added to the compound-incubated cells. The cells were incubated for 30 min at room temperature. Thereafter, the cells were washed twice in assay buffer, fixed in 1% paraformaldehyde in PBS, and analyzed on the FL4 channel of a FACSCalibur flow cytometer equipped with a 635-nm red diode lase.

IC50: 0.01 to 100 nM
SMILES: CC[C@H](O)c1c([C@H]2CCC[C@@H](c3ncccc3C)N2C)nc2cccc(N3CCN(C)CC3)n12
